This is an account of results in patent US20050065118A1, “Organosulfur inhibitors of tyrosine phosphatases” (priority 2001, published 2005).

One data set addresses T1, PTP-1B (Homo sapiens, UniProt P18031).
T1 sequence (P18031 1-435): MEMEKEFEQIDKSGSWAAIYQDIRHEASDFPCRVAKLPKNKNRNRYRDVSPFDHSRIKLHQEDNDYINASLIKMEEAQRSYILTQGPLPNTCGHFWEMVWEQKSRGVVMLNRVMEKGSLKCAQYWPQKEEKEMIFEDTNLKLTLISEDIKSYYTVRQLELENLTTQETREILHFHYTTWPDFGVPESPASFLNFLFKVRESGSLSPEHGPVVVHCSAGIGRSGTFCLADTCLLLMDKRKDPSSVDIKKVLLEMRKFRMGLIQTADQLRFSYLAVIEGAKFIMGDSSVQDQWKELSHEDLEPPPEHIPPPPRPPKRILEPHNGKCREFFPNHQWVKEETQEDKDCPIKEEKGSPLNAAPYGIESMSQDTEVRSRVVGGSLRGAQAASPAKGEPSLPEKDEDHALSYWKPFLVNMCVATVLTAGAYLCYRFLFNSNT
In words: PTP-1B inhibition, Malachite Green assay with pIRP substrate. It is filed as biochemical. The method, then: The compounds of the present invention are evaluated for biological activity as inhibitors of PTP-1B using, for example, a Malachite Green assay with pIRP as a substrate. The pIRP substrate includes a phosphotyrosine residue, and PTP-1B cleaves the phosphate group from the tyrosine, yielding the peptide and phosphate. The rate of the enzymatic reaction is determined by measuring the phosphate released during the reaction.
The reactants for the assay include 20 mM Tris-HCl, pH 7.4, 2 mM EDTA (ethylaminediamine tetraacetic acid) and 2 mM DTT (dithiothreitol) as the assay buffer, and 1 mM pIRP in assay buffer (1 mg in 0.59 mL buffer) as the substrate stock. The Malachite Green solution is prepared by adding 30 μL of 1% Tween 20 to 1 mL of Malachite Green Solution A. The stock of each compound to be tested is made up as 10 mM in DMSO (dimethylsulfoxide).
The compound to be tested is prepared as 1:5, 1:15.8, 1:50 and 1:158 dilutions from stock in a total volume of […]. The reaction mixtures are prepared in a 96-well microtiter plate as 27.5 μL assay buffer, […] of the diluted compound (to a final concentration of 100, 32, 10 and 3.2 μM), 10 μL of the pIRP substrate solution (to a final concentration of 200 μM) and 10 μL PTPase in assay buffer. The reactants are mixed well, the plate placed in a water bath at 30° C. and incubated for 3 minutes. The reaction is then terminated by adding 100 μL of Malachite Green solution per well, color is allowed to develop for 15 minutes, and the A650 is measured by conventional means.
Unless otherwise indicated, this assay was used to determine activity for the selected compounds whose activity is recorded in the Table.

Take `O=C(O)CCSC(c1cccc(-c2nnc(Nc3ccc(Cl)c(Cl)c3)s2)c1)c1cccc(C(F)(F)F)c1` (stereo not shown): the melting point lay within 140 to 141 °C. In turn, `O=C(O)c1cccc(Nc2nnc(-c3cc(OCc4ccccc4)cc(OCc4ccccc4)c3)s2)c1` [Compound 188, 3-[5-(3,5-Bis-benzyloxy-phenyl)-[1,3,4]thiadiazol-2-ylamino]-benzoic acid] showed an IC50 against PTP-1B of 10 µM. This lies in the double-digit micromolar range. On the same count and under the same terms, as for `O=C(O)c1cccc(Nc2nnc(-c3cc(Oc4cccc(C(F)(F)F)c4)cc(Oc4cccc(C(F)(F)F)c4)c3)s2)c1` [Compound 198, 3-{5-[3,5-Bis-(3-trifluoromethyl-phenoxy)-phenyl]-[1,3,4]thiadiazol-2-ylamino}-benzoic acid], the figure is 4 µM. As for `O=[N+]([O-])c1cccc(-c2nnc(Nc3cccc(Br)c3)s2)c1` [Example 1, N2-(3-bromophenyl)-5-(3-nitrophenyl)-1,3,4-thiadiazol-2-amine], the melting point was in the range of 273 to 275 °C. Consider `O=C(O)CCc1cccc(Oc2cccc(-c3nnc(Nc4ccc(Cl)c(Cl)c4)s3)c2)c1` [Example 9, 3-[3-(3-{5-[(3,4-Dichlorophenyl)amino]-1,3,4-thiadiazol-2-yl}phenoxy)phenyl]propanoic acid], for which the melting point was 194 to 196 °C. Same read-out and setting: as for `O=[N+]([O-])c1ccccc1OCc1nnc(Nc2cccc(Br)c2)s1` [Example 36, (3-Bromophenyl){5-[(2-nitrophenoxy)methyl](1,3,4-thiadiazol-2-yl)}amine], the figure is 184 to 185 °C. As to `COc1ccc(CSc2cccc(Nc3nnc(-c4cccc([N+](=O)[O-])c4)s3)c2)cc1` [Example 41, {3-[(4-Methoxyphenyl)methylthio]phenyl}[5-(3-nitrophenyl)(1,3,4-thiadiazol-2-yl)]amine], the melting point lay in the range of 208 to 209 °C. Same read-out and setting: the result for `COc1cccc(-c2nnc(Nc3ccc(F)c(Cl)c3)s2)c1` [Example 68, (3-chloro-4-fluorophenyl)[5-(3-methoxyphenyl)(1,3,4-thiadiazol-2-yl)]amine] reads 185 to 187 °C. Still for that read-out and setting: as for `COc1cccc(-c2nnc(Nc3ccc(Br)c(Cl)c3)s2)c1` [Example 69, (4-bromo-3-chlorophenyl)[5-(3-methoxyphenyl)(1,3,4-thiadiazol-2-yl)]amine], the figure is 215 to 217 °C; as for `CCOc1cccc(-c2nnc(Nc3ccc(F)c(Cl)c3)s2)c1` [Example 70, (3-chloro-4-fluorophenyl)[5-(3-ethoxyphenyl)(1,3,4-thiadiazol-2-yl)]amine], 170 to 172 °C. Same read-out and setting: the result for `CCOc1cccc(-c2nnc(Nc3ccc(Br)c(C)c3)s2)c1` [Example 71, (4-bromo-3-methylphenyl)[5(3-ethoxyphenyl)(1,3,4-thiadiazol-2-yl)]amine] reads 201 to 202 °C. Consider `CCOc1cccc(-c2nnc(Nc3cccc(Br)c3)s2)c1` [Example 74, (3-bromophenyl)[5-(3-ethoxyphenyl)(1,3,4-thiadiazol-2-yl)]amine], for which the melting point was 195 to 197 °C. Still for that read-out and setting: as for `O=[N+]([O-])c1cccc(-c2nnc(Nc3cccc(Cl)c3Cl)s2)c1` [Example 76, (2,3-dichlorophenyl)[5-(3-nitrophenyl)(1,3,4-thiadiazol-2-yl)]amine], the figure is 240 to 242 °C; as for `Clc1cc(Nc2nnc(-c3ccc4nonc4c3)s2)ccc1Br` [Example 122, (5-benzo[3,4-c]1,2,5-oxadiazol-5-yl(1,3,4-thiadiazol-2-yl))(4-bromo-3-chlorophenyl)amine], 326 to 327 °C. In turn, `CCOC(=O)c1ccc(Nc2nnc(-c3ccc(Oc4ccccc4)cc3)s2)cc1` [Example 123, ethyl 4-{[5-(4-phenoxyphenyl)-1,3,4-thiadiazol-2-yl]amino}benzoate] showed a melting point of 206 to 207 °C. On the same count and under the same terms, as for `O=[N+]([O-])c1cccc(Oc2cccc(-c3nnc(Nc4ccc(Cl)c(Cl)c4)s3)c2)c1` [Example 126, (3,4-dichlorophenyl){5-[3-(3-nitrophenoxy)phenyl](1,3,4-thiadiazol-2-yl)}amine], the figure is 210.5 to 211.5 °C; as for `O=C(O)Cc1cccc(Oc2cccc(-c3nnc(Nc4ccc(Cl)c(Cl)c4)s3)c2)c1` [Example 127, 2-[3-(3-{5-[(3,4-dichlorophenyl)amino]-1,3,4-thiadiazol-2-yl}phenoxy)phenyl]acetic acid], 183 to 184 °C; as for `Oc1ccc(Oc2cccc(-c3nnc(Nc4ccc(Cl)c(Cl)c4)s3)c2)cc1` [Example 128, 4-(3-{-[(3,4-dichlorophenyl)amino]-1,3,4-thiadiazol-2-yl}phenoxy)phenol], 224 to 225.5 °C. The same measure, in the same setting: as for `FC(F)(F)Oc1cccc(COc2cccc(-c3nnc(Nc4ccc(Cl)c(Cl)c4)s3)c2)c1` [Example 129, (3,4-dichlorophenyl)[5-(3-{[3-(trifluoromethoxy)phenyl]methoxy}phenyl)(1,3,4-thiadiazol-2-yl)]amine], the figure is 166 to 167 °C. On the same count and under the same terms, the result for `CCOc1cccc(-c2nnc(N(Cc3cccc([N+](=O)[O-])c3)c3ccc(Cl)c(Cl)c3)s2)c1` [Example 147, (3,4-dichlorophenyl)[5-(3-ethoxyphenyl)(1,3,4-thiadiazol-2-yl)][(3-nitrophenyl)methyl]amine] reads 114 to 115 °C; that for `COc1ccc(Oc2cccc(-c3nnc(Nc4ccc(Cl)c(Cl)c4)s3)c2)cc1` [Example 150, (3,4-dichlorophenyl)(5-[3-(4-methoxyphenoxy)phenyl](1,3,4-thiadiazol-2-yl)}amine], 198 to 199 °C; that for `Cc1ccc(Oc2cccc(-c3nnc(Nc4ccc(Cl)c(Cl)c4)s3)c2)cc1` [Example 151, (3,4-dichlorophenyl){5-[3-(4-methylphenoxy)phenyl](1,3,4-thiadiazol-2-yl)}amine], 210 to 211 °C.

In turn, `Clc1cc(Cl)cc(Oc2cccc(-c3nnc(Nc4ccc(Cl)c(Cl)c4)s3)c2)c1` [Example 152, (3,4-dichlorophenyl){5-[3-(3,5-dichlorophenoxy)phenyl](1,3,4-thiadiazol-2-yl)}amine] gave a melting point of 242 to 243 °C.

In the case of `Clc1ccc(Nc2nnc(-c3cccc(Oc4ccc(Cl)c(Cl)c4)c3)s2)cc1Cl` [Example 153, (3,4-dichlorophenyl)(5-[3-(3,4-dichlorophenoxy)phenyl](1,3,4-thiadiazol-2-yl)}amine], the melting point was in the range of 189 to 190 °C. On the same count and under the same terms, the result for `FC(F)(F)c1cccc(Oc2cccc(-c3nnc(Nc4ccc(Cl)c(Cl)c4)s3)c2)c1` [Example 154, (3,4-dichlorophenyl)(5-{3-[3-(trifluoromethyl)phenoxy]phenyl}(1,3,4-thiadiazol-2-yl))amine] reads 212 to 213 °C; that for `O=C(O)c1ccc(CN(c2ccc(Cl)c(Cl)c2)c2nnc(-c3cccc(Oc4cccc(C(F)(F)F)c4)c3)s2)cc1` [Example 157, 4-{[(3,4-dichlorophenyl)(5-{3-[3-(trifluoromethyl)phenoxy]phenyl}-(1,3,4-thiadiazol-2-yl))amino]methyl}benzoic acid], 114 to 116 °C; that for `Nc1nnc(-c2cccc(Oc3cccc(COc4ccc(Cl)c(Cl)c4)c3)c2)s1` [Example 158, (3,4-dichlorophenyl)(5-{3-[3-(oxymethyl)phenoxy]phenyl)(1,3,4-thiadiazol-2-yl))amine], 128 to 130 °C. On the same count and under the same terms, as for `Clc1ccc(Nc2nnc(-c3cc(OCc4ccccc4)cc(OCc4ccccc4)c3)s2)cc1Cl` [Example 160, (3,4-dichlorophenyl){5-[3,5-bis(phenylmethoxy)phenyl](1,3,4-thiadiazol-2-yl)}amine], the figure is 212 to 214 °C. Take `Clc1ccc(Nc2nnc(-c3ccc4nonc4c3)s2)cc1Cl` [Example 162, (5-benzo[c]1,2,5-oxadiazol-5-yl(1,3,4-thiadiazol-2-yl))(3,4-dichlorophenyl)amine]: the melting point lay within 315 to 317 °C. Still for that read-out and setting: as for `CC(=NNc1ccc(C(=O)O)cc1)c1cccc(Nc2nnc(-c3cccc(Oc4cccc(C(F)(F)F)c4)c3)s2)c1` [Example 165, 4-{N′-[1-(3-{5-[3-(3-Trifluoromethyl-phenoxy)-phenyl]-[1,3,4]thiadiazol-2-ylamino}-phenyl)-ethylidene]-hydrazino}-benzoic acid], the figure is 277.5 to 279 °C. On the same count and under the same terms, as for `O=C(O)c1ccc(CNc2nnc(-c3cccc(Oc4ccccc4)c3)s2)cc1` [Example 166, 4-({[5-(3-phenoxyphenyl)-1,3,4-thiadiazol-2-yl]amino}methyl)benzoic acid], the figure is 192 to 195 °C.
